According to ChEMBL document CHEMBL1201862, “PubChem BioAssay data set” (2004):
Calls of active or inactive are those of the source.

How the values were obtained:
BJ [1] = experiment: growth inhibition of engineered Ras-driven BJ cells – cell-based, alamar blue fluorescence, cherrypicked samples, dose response (AID 2631); assay type: functional; conditions: Homo sapiens;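 further: confirmatory dose-response assay in RAS-dependent BJ fibroblasts engineered with TERT, LT and ST, with cytotoxicity read by fluorescence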
[2] = luciferase reporter signal suppression in cells – H4 neuroglioma cells, luminescence, dose response (AID 1990); assay type: functional, cell-based
BJ [3] = experiment: BJ-TERT fibroblast viability loss – cell-based, RAS-independent, luminescence, dose response (AID 1933); assay type: functional; conditions: Homo sapiens
[4] = Luminescence Cell-Based Dose Response HTS to Identify Inhibitors of 5'UTR Stem-Loop Driven Prion Protein mRNA Translation in H4 Neuroglioblastoma Cells. [Related pubchem assays: 1827 (Project Summary), 1813 (Primary HTS)]; assay type: functional
[5] = biological target: Peroxisome proliferator-activated receptor gamma/Nuclear receptor coactivator 1 (Homo sapiens, UniProt P37231); assay type: functional;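 further: agonist potency as compounds enhance coactivator SRC-1 recruitment to PPARgamma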
Peroxisome proliferator-activated receptor gamma/Nuclear receptor coactivator 1, sequence (P37231 whole entry): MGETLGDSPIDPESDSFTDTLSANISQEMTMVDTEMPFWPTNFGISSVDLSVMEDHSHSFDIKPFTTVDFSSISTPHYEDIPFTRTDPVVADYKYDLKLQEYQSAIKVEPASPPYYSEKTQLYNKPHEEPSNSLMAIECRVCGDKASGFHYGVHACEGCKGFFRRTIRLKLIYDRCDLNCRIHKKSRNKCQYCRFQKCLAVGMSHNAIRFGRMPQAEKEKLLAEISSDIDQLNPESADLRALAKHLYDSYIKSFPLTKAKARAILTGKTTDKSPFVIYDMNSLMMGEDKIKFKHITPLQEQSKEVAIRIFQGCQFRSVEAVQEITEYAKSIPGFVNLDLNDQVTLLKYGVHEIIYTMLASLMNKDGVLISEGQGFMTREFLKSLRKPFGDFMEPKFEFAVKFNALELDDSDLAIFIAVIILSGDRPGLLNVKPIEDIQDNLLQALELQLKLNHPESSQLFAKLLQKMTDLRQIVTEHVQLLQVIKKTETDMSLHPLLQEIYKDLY
Peroxisome proliferator-activated receptor gamma/Nuclear receptor coactivator 1, sequence (Q15788 whole entry, further chain): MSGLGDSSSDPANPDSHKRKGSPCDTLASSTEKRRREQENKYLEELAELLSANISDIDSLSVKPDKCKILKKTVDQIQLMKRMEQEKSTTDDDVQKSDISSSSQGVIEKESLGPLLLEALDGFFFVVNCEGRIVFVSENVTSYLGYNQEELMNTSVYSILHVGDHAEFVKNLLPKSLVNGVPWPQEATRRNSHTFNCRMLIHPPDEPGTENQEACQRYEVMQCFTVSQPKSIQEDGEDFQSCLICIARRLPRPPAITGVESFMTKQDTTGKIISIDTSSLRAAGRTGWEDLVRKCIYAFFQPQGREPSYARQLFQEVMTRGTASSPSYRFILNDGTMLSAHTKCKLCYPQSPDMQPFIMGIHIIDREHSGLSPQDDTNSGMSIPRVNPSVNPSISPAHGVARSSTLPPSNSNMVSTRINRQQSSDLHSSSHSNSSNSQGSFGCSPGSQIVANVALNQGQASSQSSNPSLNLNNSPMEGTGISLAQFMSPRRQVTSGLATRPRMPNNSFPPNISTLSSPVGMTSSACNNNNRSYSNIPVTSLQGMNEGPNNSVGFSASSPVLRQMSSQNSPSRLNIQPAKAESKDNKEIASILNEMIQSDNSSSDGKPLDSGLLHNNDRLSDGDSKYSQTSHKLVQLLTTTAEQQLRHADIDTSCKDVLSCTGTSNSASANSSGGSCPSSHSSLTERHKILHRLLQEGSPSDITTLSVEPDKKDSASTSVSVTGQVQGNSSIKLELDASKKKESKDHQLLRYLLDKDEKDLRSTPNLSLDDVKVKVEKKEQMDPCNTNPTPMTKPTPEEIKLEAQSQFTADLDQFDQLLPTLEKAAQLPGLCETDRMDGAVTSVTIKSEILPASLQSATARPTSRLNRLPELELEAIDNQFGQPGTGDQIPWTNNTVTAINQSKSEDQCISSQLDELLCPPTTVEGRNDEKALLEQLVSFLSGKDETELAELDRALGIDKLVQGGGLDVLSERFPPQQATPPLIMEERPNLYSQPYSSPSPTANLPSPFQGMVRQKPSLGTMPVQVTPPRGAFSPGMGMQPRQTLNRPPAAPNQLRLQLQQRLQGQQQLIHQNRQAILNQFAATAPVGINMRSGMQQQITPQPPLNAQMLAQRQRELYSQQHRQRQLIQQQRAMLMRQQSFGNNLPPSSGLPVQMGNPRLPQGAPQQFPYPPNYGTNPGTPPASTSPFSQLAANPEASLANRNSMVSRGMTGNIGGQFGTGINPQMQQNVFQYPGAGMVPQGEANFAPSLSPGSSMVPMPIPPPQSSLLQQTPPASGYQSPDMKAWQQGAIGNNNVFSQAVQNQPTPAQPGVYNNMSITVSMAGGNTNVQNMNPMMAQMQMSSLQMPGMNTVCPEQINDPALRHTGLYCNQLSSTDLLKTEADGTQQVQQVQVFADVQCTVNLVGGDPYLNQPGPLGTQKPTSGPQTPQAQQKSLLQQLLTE

BJ [6] = experiment: cells; assay type: functional, cell-based, Homo sapiens; conditions: Homo sapiens, BJ
BJ [7] = experiment: BJ-TERT-LT-ST fibroblast viability loss – cell-based, RAS-independent, luminescence, dose response (AID 1935); assay type: functional; conditions: Homo sapiens;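 further: BJ fibroblasts immortalized with TERT plus LT and ST oncogenes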
[8] = alpha-synuclein stem-loop luciferase translation blockers – H4 neuroglioma cells, luminescence, confirmation (AID 1988); assay type: functional, cell-based
[9] = biological target: Peroxisome proliferator-activated receptor gamma/Nuclear receptor coactivator 3 (Homo sapiens, UniProt P37231); assay type: functional;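 further: agonist potency for raising coactivator recruitment to the receptor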
[10] = biological target: Peroxisome proliferator-activated receptor gamma/Nuclear receptor coactivator 2 (Homo sapiens, UniProt P37231); assay type: functional;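 further: agonist potency for raising coactivator recruitment to the receptor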
Cytochrome P450 3A4 = Cytochrome P450 3A4 (Homo sapiens, UniProt P08684);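 further: CYP3A4 tested as one member of a cytochrome P450 panel screen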
Cytochrome P450 3A4, sequence (P08684 whole entry): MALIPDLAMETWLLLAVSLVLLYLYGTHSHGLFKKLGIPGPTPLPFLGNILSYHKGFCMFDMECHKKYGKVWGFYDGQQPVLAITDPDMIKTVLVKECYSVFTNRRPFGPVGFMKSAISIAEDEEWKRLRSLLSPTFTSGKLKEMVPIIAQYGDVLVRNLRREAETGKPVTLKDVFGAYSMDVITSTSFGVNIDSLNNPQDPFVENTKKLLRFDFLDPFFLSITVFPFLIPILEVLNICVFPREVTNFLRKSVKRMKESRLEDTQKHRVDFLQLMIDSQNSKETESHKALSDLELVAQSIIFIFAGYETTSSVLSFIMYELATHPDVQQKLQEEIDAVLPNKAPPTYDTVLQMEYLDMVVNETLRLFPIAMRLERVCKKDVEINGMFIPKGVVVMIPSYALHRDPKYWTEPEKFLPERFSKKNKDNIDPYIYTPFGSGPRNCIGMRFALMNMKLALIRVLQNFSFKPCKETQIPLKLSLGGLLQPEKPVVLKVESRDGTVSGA

[11] = DRD fibroblast viability loss – cell-based, non-viral oncogenic, luminescence, dose response (AID 1934); assay type: functional; conditions: Homo sapiens
Paired box protein Pax-8 = Paired box protein Pax-8 (Homo sapiens, UniProt Q06710); experiment: PAX8 transcriptional activity inhibition in RMG-I – RMG-I cells, luciferase, cherry-pick, dose response (AID 687027); assay type: functional, cell-based;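 further: luciferase reporter driven by Pax8 target thyroperoxidase promoter measured by SteadyGlo luminescence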
Paired box protein Pax-8, sequence (Q06710 whole entry): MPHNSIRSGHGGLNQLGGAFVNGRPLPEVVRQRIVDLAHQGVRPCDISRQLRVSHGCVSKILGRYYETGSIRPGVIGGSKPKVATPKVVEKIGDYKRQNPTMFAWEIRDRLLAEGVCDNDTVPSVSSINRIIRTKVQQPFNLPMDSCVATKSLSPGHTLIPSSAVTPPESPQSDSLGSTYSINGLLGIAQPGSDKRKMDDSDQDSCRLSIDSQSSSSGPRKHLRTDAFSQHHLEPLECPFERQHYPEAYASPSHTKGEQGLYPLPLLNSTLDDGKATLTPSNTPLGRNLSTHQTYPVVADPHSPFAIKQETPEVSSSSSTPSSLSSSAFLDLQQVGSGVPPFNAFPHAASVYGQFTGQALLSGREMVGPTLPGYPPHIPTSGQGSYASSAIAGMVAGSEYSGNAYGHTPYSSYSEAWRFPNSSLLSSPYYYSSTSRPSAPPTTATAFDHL

[12] = biological target: T1, Zinc finger protein mex-5 (Caenorhabditis elegans, UniProt Q9XUB2); experiment: potency of MEX-5 RNA-binding blockers – biochemical, C. elegans, fluorescence polarization, dose response (AID 1960)
T1 sequence (Q9XUB2 whole entry): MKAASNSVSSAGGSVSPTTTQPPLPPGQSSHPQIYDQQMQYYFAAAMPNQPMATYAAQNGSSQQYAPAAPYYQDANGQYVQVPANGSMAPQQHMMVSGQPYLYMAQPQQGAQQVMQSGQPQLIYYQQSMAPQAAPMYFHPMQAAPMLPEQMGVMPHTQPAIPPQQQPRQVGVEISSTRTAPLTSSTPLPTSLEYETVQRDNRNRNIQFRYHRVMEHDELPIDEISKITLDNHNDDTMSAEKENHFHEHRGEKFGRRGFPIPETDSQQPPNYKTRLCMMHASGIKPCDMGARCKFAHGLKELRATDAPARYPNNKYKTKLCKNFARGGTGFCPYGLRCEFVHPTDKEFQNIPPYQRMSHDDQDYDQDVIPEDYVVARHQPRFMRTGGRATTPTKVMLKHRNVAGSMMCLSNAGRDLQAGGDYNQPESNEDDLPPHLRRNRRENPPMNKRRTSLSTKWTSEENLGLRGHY

[13] = biological target: T2, RNA-binding protein pos-1 (Caenorhabditis elegans, UniProt G5EF15); experiment: disruptors of C. elegans POS-1 RNA interaction – biochemical, fluorescence polarization, dose response (AID 1964);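 further: purified POS-1 fused to maltose binding protein made in E. coli; potency of compounds blocking POS-1 binding to fluorescent RNA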
T2 sequence (G5EF15 whole entry): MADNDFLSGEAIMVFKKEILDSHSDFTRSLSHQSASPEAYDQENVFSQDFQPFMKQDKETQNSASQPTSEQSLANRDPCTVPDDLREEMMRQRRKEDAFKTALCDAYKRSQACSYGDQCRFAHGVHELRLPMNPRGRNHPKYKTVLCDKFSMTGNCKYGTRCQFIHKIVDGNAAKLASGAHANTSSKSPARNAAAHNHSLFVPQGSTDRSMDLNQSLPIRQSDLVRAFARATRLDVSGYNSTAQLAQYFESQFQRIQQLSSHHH

[14] = biological target: T3, Sentrin-specific protease 1 (Homo sapiens, UniProt Q9P0U3); experiment: Dose response confirmation of small molecule inhibitors of the catalytic domain of the SUMO protease, SENP1 in a FRET assay.; assay type: functional; conditions: read-out: IC50_Mean
T3 sequence (Q9P0U3 whole entry): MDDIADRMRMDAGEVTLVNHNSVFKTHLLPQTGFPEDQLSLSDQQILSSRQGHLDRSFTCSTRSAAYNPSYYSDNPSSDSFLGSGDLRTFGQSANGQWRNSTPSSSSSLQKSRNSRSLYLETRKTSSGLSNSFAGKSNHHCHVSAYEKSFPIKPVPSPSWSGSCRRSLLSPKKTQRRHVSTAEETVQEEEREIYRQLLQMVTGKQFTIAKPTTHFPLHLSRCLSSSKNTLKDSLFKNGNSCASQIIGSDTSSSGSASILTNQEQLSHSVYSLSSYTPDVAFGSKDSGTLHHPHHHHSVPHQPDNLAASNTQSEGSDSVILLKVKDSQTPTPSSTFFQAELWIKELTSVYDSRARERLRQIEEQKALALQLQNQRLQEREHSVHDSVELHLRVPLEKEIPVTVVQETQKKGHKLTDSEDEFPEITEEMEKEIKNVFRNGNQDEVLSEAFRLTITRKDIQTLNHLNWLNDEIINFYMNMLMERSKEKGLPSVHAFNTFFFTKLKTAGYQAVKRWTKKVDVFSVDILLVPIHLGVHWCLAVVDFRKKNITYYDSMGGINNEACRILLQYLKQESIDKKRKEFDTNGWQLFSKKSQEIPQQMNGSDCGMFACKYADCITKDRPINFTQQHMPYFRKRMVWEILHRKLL

[15] = biological target: T4, Oxysterols receptor LXR-beta (Homo sapiens, UniProt P55055); assay type: functional, cell-based;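 further: agonist activity at LXR measured by a cell-based luminescence readout across a dose range, run as a counterscreen for daf-12 agonists; HEK293 cells with Gal4-LXR fusion and GAL4-driven luciferase reporter; potency for activation of Gal4-LXR reporter so compounds are agonists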
T4 sequence (P55055 whole entry): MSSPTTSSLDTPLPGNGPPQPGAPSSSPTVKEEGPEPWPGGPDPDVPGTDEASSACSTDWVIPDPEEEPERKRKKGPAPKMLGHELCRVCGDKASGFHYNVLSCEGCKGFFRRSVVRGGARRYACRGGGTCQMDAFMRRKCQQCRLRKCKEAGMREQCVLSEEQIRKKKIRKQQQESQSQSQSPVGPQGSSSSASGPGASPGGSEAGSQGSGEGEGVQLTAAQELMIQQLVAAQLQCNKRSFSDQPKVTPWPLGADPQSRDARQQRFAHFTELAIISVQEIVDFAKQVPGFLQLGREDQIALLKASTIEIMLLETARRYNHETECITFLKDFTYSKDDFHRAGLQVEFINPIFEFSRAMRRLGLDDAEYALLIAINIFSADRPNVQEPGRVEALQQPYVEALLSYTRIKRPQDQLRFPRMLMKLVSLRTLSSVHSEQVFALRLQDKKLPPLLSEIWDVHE

Protein Wnt-3a = Protein Wnt-3a (Mus musculus, UniProt P27467); experiment: antagonism of Wnt3a pathway luciferase reporter – Wnt-LIGHT cells, luminescence, selectivity assay for Gli-SUFU antagonist project, dose response (AID 651570); assay type: functional; conditions: read-out: IC50_Mean;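 further: Wnt-LIGHT reporter cells stimulated with conditioned medium from Wnt3a-producing cells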
Protein Wnt-3a, sequence (P27467 whole entry, the tested form may be a part): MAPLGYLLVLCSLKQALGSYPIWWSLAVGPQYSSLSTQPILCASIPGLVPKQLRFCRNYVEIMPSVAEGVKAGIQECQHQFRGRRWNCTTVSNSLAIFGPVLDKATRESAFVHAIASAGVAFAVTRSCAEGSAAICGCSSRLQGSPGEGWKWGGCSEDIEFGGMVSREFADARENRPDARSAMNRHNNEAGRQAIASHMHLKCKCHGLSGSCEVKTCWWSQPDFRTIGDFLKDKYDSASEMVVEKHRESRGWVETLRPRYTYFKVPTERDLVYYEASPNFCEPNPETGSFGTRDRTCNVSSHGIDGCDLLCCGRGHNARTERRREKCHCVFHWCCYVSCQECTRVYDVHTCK

[16] = biological target: T5, Hepatocyte nuclear factor 4-alpha (Homo sapiens, UniProt P41235); assay type: functional, cell-based;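 further: biochemical luminescence-based dose-response counterscreen measuring inhibition of HNF4 dimerization, run alongside a screen for blockers of ABHD5–perilipin-5 interaction; split luciferase complementation of HNF4 fusion proteins in cell lysate measuring dimerization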
T5 sequence (P41235 whole entry): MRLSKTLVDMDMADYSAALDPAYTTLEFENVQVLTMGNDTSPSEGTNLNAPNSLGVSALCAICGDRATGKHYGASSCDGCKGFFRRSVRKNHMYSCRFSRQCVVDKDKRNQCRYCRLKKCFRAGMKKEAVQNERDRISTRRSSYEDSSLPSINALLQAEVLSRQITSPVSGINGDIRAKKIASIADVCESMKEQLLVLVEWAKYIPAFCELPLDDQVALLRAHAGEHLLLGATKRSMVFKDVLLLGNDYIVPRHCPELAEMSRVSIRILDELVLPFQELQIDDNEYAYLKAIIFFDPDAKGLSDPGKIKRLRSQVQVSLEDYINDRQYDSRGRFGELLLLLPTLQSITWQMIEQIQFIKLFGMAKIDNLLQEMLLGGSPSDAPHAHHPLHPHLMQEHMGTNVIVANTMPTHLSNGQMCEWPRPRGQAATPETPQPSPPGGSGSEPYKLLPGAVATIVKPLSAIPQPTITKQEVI

Vero = experiment: viability of Vero cells under compound – cytotoxicity control for flavivirus capping enzyme inhibitors (AID 588742); assay type: functional; conditions: Chlorocebus sabaeus
Genome polyprotein = Genome polyprotein (dengue virus type 2, UniProt P29990); experiment: flavivirus cap methylation enzyme inhibition – biochemical, confirmation dose response, primary screen (AID 588689); assay type: functional
Beta-galactosidase = Beta-galactosidase (Escherichia coli, UniProt Q8VNN2); experiment: Dose response counterscreen for EBI2 assay utilizing the enzyme, b-galactosidase.; assay type: functional
Beta-galactosidase, sequence (Q8VNN2 whole entry): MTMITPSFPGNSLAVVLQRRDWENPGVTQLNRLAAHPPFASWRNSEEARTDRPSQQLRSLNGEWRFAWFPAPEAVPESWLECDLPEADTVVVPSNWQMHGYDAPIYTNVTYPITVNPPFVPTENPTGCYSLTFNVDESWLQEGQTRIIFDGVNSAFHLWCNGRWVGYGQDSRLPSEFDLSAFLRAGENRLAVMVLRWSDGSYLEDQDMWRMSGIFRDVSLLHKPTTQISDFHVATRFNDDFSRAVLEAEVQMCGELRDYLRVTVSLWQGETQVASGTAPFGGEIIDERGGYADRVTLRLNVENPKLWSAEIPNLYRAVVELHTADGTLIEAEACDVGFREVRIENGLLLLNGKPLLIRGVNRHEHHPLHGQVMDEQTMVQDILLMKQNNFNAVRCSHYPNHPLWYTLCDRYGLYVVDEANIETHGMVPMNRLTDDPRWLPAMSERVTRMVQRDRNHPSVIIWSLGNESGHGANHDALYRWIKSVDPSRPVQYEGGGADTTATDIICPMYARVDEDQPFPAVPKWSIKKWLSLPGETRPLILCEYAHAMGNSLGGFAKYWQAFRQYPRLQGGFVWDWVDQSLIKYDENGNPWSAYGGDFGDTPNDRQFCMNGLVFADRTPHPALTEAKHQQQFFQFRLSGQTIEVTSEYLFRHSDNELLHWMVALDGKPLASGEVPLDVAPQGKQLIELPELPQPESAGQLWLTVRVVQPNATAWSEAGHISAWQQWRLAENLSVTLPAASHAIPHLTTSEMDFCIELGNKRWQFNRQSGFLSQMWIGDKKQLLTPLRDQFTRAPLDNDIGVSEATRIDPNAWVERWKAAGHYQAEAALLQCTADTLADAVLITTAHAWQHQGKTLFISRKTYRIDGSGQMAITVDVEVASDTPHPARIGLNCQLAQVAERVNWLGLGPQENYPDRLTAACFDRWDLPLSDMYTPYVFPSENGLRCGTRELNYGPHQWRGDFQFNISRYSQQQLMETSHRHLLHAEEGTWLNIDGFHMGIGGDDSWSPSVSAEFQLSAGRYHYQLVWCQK

[17] = general cell-killing toxicity readout – plate reader, dry powder samples, cytotoxicity control for PAX8 inhibitor project, dose response (AID 743021); assay type: functional, cell-based
[18] = biological target: T6, Ubiquitin-conjugating enzyme E2 N (Homo sapiens, UniProt P61088); assay type: functional;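 further: Dose-response confirmation in a TR-FRET assay detecting UBC13-driven polyubiquitin chain formation, inhibition measured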
T6 sequence (P61088 whole entry): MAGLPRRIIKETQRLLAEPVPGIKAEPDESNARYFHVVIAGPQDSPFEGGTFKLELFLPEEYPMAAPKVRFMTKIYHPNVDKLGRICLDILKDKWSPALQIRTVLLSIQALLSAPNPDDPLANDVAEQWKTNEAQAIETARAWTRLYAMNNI

[19] = activation of miR-122 Renilla sensor silencing – cell-based, Huh7 psiCHECK-miR122, Renilla luciferase, cherry-picked, dose response (AID 651956); assay type: functional;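 further: huh7 hepatoma cells stably carrying a psiCHECK-2 miR-122 sensor plasmid; renilla luciferase signal reporting endogenous miR-122 activity after 48 h compound exposure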
[20] = biological target: T7, Long-chain-fatty-acid--AMP ligase FadD28 (Mycobacterium tuberculosis, UniProt P9WQ59); experiment: Fluorescence polarization aasay to screen for inhibitors that compete for the binding of FadD28 to a bisubstrate Measured in Biochemical System Using Plate Reader - 2147-01_Inhibitor_Dose_CherryPick_Activity.; assay type: functional, Mycobacterium tuberculosis H37Rv
T7 sequence (P9WQ59 whole entry): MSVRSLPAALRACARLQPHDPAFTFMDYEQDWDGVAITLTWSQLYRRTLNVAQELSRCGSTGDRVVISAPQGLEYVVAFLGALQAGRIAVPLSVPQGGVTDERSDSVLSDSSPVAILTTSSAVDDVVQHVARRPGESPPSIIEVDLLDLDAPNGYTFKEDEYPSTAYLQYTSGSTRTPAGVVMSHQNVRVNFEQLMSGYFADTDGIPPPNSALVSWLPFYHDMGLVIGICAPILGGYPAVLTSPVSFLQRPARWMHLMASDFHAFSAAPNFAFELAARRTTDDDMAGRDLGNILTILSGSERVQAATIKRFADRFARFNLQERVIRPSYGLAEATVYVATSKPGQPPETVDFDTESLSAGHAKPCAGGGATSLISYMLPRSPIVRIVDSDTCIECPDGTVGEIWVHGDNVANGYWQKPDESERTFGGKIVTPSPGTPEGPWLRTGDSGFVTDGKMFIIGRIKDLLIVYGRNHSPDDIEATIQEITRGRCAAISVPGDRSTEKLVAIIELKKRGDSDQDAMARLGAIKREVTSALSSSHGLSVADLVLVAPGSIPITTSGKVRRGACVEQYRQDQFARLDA

FC(F)(F)c1nnc2c(Sc3ccc(Cl)cc3)nc3ccccc3n12
EC50 (BJ [1]): 0.565 µM (active)
EC50 [2]: > 120 µM (not active)
EC50 (BJ [3]): 3.28 µM (inconclusive)
EC50 [4]: 9.77 µM (active)
EC50 [5]: 24.3 µM (not active)
EC50 (BJ [6]): 25.2 µM (active)
EC50 (BJ [7]): 5.54 µM (inconclusive)
EC50 [8]: > 120 µM (not active)
EC50 [9]: 32.3 µM (not active)
EC50 [10]: 21.7 µM (not active)
AC50 (Cytochrome P450 3A4): inconclusive
EC50 [11]: 9.34 µM (inconclusive)
AC50 (Paired box protein Pax-8): 1.27 µM (active)

O=C(c1ccccc1)[C@@H]1[C@@H]2C(=O)N(c3ccc(F)cc3)C(=O)[C@@H]2C2CCCN21 (stereo not given in full)
EC50 [12]: 40.9 µM (active)
EC50 [13]: 37.9 µM (active)
IC50 [14]: 7.78 µM (active)

c1ccc(CCSc2nccn2-c2ccccc2)cc1
EC50 [15]: > 67.6 µM (inactive)

CC[n+]1ccn(C)c1P(c1ccccc1)c1ccccc1
IC50 (Protein Wnt-3a): 6.99 µM (active)

CCC(C(=O)OCCN(CC)CC)c1ccccc1 (stereo not given)
IC50 [16]: 23.9 µM (inactive)

CCCCCCCCn1c(=O)c(C(=O)OCC)c(O)c2ccccc21
CC50 (Vero): > 40 µM (active)
IC50 (Genome polyprotein): 77.2 µM (active)

Cc1occc1-c1nnc(SCC(=O)NCCc2ccccc2)n1Cc1ccccc1
IC50 (Beta-galactosidase): > 80 µM (inactive)

CCC[C@H](CN[C@@H](CNC)[C@H](C)CC)NCCc1cc(C(F)(F)F)cc(C(F)(F)F)c1
EC50 [2]: 8.3 µM (active)
AC50 [17]: 22.1 µM (active)
EC50 [4]: 9.67 µM (active)
IC50 [18]: > 20 µM (inactive)
EC50 [8]: 7.09 µM (active)
AC50 (Paired box protein Pax-8): 9.95 µM (active)

O=C(N[C@@H]1C/C=C\C[C@@H](CC(=O)N(CCO)Cc2ccccc2)C(=O)N[C@@H](c2ccccc2)COC1=O)OCC1c2ccccc2-c2ccccc21
IC50 (Protein Wnt-3a): 12.3 µM (active)

CN(C)CCNc1ncnc2c1ncn2[C@H]1CN(Cc2cccnc2)C[C@@H](CO)O1
EC50 [15]: > 67.5 µM (inactive)

CCS(=O)(=O)Nc1ccc2c(c1)C(=O)N(C)C[C@@H](OC)[C@H](C)CN(CC1CCCC1)[C@H](C)CO2
AC50 [19]: 23.6 µM (active)

Cc1cccc(C)c1NC(=O)C(c1ccccc1)n1c(=O)c(-c2ccco2)nc2ccccc21 (stereo not given)
IC50 [16]: 3.81 µM (active)

CC(C)(C)NC(=O)C(c1cccc2ccccc12)n1c(=O)c(-c2ccco2)nc2ccccc21 (stereo not given)
IC50 [16]: 2.27 µM (active)

CC(=Nc1ccc(Cl)cc1N)c1c(O)cc(C)oc1=O
EC50 [15]: > 67.6 µM (inactive)

O=C(N/N=C/c1c[nH]c2ccccc12)c1cc(Cl)ccc1O
AC50 [20]: 9.8 µM (active)
